According to patent publication US6335331B1, “Pseudopolymorphic forms of 2-[2-[4-[Bis (4-fluorophenyl) methyl]-1-piperazinyl]ethoxy]acetic acid dihydrochloride” (UCB, S.A., priority 1997, dated 2002):

Columns and labels:
[1] = Clinical pharmacology study in urticaria, atopic dermatitis and prurit; type: in vivo; conditions: clinical pharmacology study (to be published)
histamine H1-receptor = histamine H1-receptor (Homo sapiens, UniProt P35367); conditions: in vitro; cited from earlier work
[2] = Intrinsic dissolution rate (static disc method, USP XXII apparatus No 2); type: physicochemical; conditions: 70:30 (w/w) with AVICEL PH102, dihydrochloride
Method: Drug bioavailability studies have shown that an intrinsic dissolution rate (IDR) lower than 0.1 mg/cm^2/min can often be predictive of a dissolution rate-limited absorption in humans. Thus, IDR is a predictive parameter of bioavailability. This parameter depends upon various physicochemical properties including, the chemical form (salt, solvate), the crystal form, the solubility and wettability. The determination of IDR was performed in the following way. The Form to be tested was homogeneously ground and mixed with microcrystalline cellulose AVICEL PH102 (dry binder which improves tableting properties). The substance:excipient mix ratio was 70:30 (w/w). Aliquots (500 mg) were compressed into pellets by compression until a final applied load of 10 tons in order to obtain a constant and known surface area of zero porosity. The dissolution experiments were carried out at 37° C. using 500 ml of aqueous media at three different pH values intended to cover the expected range of human gastrointestinal pH values, i.e. 1.2, 4.0 and 7.5. Uniform and reproducible haemodynamic conditions were obtained by carrying out the test with USP XXII apparatus N°2 (United States Pharmacopoeia, 1990) in which a paddle is used as stirring element (50 rpm) and the pellet assembly is placed at the bottom of the vessel (static disc method). Statistically assessed (p<0.05) linear portions of all replicate dissolution curves were selected for subsequent IDR calculation.

[3] = Storage stability of 1:1 (w/w) binary mixtures with D-sorbitol: sorbitol-efletirizine monoester by HPLC-UV; type: physicochemical; conditions: for sorbitol-efletirizine monoester, Relative % area: 1:1 (w/w) with D-sorbitol; for monoester formation (in words): pellet with D-sorbitol
Method: This is illustrated in the results of the following study, aimed at examining the stabilities of the two pseudopolymorphic forms in the presence of D-sorbitol during storage under stress temperature conditions, that is, in sealed vials at 40 or 60° C. In this study, HPLC analysis of several samples was performed: Form A, Form B, D-sorbitol and 1:1 (w/w) mixtures of Form A or Form B with D-sorbitol. Each sample was homogeneously ground and mixed. Aliquots (500 mg) were compressed into 13 mm diameter pellets at an applied load of 1 ton which a usual compression strength for pharmaceutical tablets. Each compact pellet was immediately ground into a fine powder, and an aliquot was stored in a tightly sealed glass vial at 40 or 60° C. Samples were analysed by HPLC after 0, 4, 16 and 24 weeks. p In a first series of analyses, HPLC/UV spectra were collected using a Kontron HPLC system type 300 fitted with a UV detector. The column used was Supercosil RP—ABZ 250×4.6 mm I.D. 5 μm particle size, and the mobile phase used consisted of an acetonitrile/water 25:75 (v/v) mixture, the water containing 770 mg/l ammonium acetate. Samples to be analysed were dissolved in acetonitrile/water 25:75 (v/v) at a concentration of 2 mg/ml, and 10 μl of these solutions were injected in the HPLC system. Upon comparing the HPLC spectra obtained for the individual components and for the binary mixtures, new peaks detected were considered indicative of an interaction with D-sorbitol. When present, these new peaks were quantified and further identified by HPLC/MS analysis, using a VG Quattro spectrometer coupled onto a Kontron HPLC system. In HPLC/MS, the new peaks observed for the binary mixtures were identified as a sorbitol-efletirizine monoester and dehydrated forms of a sorbitol-efletirizine monoester. The latter appeared after longer storage periods than the former. […] Relative quantification of monoester was performed by HPLC-UV analysis.

[4] = Storage stability of the pure forms under stress temperature, HPLC/UV; type: physicochemical; conditions: pure form, 40° or 60° C., 4, 16 or 24 weeks
Method: This is illustrated in the results of the following study, aimed at examining the stabilities of the two pseudopolymorphic forms in the presence of D-sorbitol during storage under stress temperature conditions, that is, in sealed vials at 40 or 60° C. In this study, HPLC analysis of several samples was performed: Form A, Form B, D-sorbitol and 1:1 (w/w) mixtures of Form A or Form B with D-sorbitol. Each sample was homogeneously ground and mixed. Aliquots (500 mg) were compressed into 13 mm diameter pellets at an applied load of 1 ton which a usual compression strength for pharmaceutical tablets. Each compact pellet was immediately ground into a fine powder, and an aliquot was stored in a tightly sealed glass vial at 40 or 60° C. Samples were analysed by HPLC after 0, 4, 16 and 24 weeks. p In a first series of analyses, HPLC/UV spectra were collected using a Kontron HPLC system type 300 fitted with a UV detector. The column used was Supercosil RP—ABZ 250×4.6 mm I.D. 5 μm particle size, and the mobile phase used consisted of an acetonitrile/water 25:75 (v/v) mixture, the water containing 770 mg/l ammonium acetate. Samples to be analysed were dissolved in acetonitrile/water 25:75 (v/v) at a concentration of 2 mg/ml, and 10 μl of these solutions were injected in the HPLC system. […] Pure D-sorbitol was not detected in HPLC/UV. […]

[5] = 40° C., 4 weeks, dihydrochloride
[6] = 40° C., 16 weeks, dihydrochloride
[7] = 40° C., 24 weeks, dihydrochloride
[8] = 60° C., 0 weeks, dihydrochloride
[9] = 60° C., 4 weeks, dihydrochloride
[10] = 60° C., 16 weeks, dihydrochloride
[11] = 60° C., 24 weeks, dihydrochloride
[12] = storage at 60° C., dihydrochloride

Chain of histamine H1-receptor (P35367 whole entry, species assumed): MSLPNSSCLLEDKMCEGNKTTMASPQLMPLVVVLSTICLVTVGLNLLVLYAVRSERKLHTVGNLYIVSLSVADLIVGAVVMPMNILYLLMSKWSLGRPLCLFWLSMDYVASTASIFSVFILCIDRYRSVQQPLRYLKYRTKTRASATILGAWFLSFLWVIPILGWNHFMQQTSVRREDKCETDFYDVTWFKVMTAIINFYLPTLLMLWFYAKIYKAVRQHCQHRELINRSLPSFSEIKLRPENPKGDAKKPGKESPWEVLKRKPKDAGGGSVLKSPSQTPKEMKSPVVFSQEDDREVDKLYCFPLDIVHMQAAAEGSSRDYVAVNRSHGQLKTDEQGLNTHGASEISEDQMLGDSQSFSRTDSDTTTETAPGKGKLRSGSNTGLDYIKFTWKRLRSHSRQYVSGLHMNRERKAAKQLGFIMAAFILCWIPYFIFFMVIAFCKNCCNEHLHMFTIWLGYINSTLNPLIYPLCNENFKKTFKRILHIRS

SMILES | results in the treatment of urticaria, atopic dermatitis and prurit [1] | affinity for H1-receptors (histamine H1-receptor) | selectivity for H1-receptors (histamine H1-receptor) | Intrinsic dissolution rate ([2]; pH 1.2, 37° C.) [mg/cm^2/min] | Intrinsic dissolution rate ([2]; pH 4.0, 37° C.) [mg/cm^2/min] | Intrinsic dissolution rate ([2]; pH 7.5, 37° C.) [mg/cm^2/min] | sorbitol-efletirizine monoester, Relative % area ([3]; 40° C., 0 weeks) [Relative % area] | sorbitol-efletirizine monoester, Relative % area [3, 5] [Relative % area] | sorbitol-efletirizine monoester, Relative % area [3, 6] [Relative % area] | sorbitol-efletirizine monoester, Relative % area [3, 7] [Relative % area] | sorbitol-efletirizine monoester, Relative % area [3, 8] [Relative % area] | sorbitol-efletirizine monoester, Relative % area [3, 9] [Relative % area] | sorbitol-efletirizine monoester, Relative % area [3, 10] [Relative % area] | sorbitol-efletirizine monoester, Relative % area [3, 11] [Relative % area] | monoester formation (in words) ([3]; storage at 40° C.) | monoester formation (in words) [3, 12] | modifications of the HPLC/UV spectrograms after storage [4]
O=C(O)COCCN1CCN(C(c2ccc(F)cc2)c2ccc(F)cc2)CC1 [efletirizine, 2-[2-[4-[Bis(4-fluorophenyl)methyl]-1-piperazinyl]ethoxy]acetic acid] | unexpectedly good results | high affinity | selectivity | – | – | – | – | – | – | – | – | – | – | – | – | – | –
Cl.Cl.O=C(O)COCCN1CCN(C(c2ccc(F)cc2)c2ccc(F)cc2)CC1 [Form A, 2-[2-[4-[bis(4-fluorophenyl)methyl]-1-piperazinyl]ethoxy]acetic acid dihydrochloride] | – | – | – | 5.04 ± 0.34 | 5.43 ± 0.32 | 4.52 ± 0.34 | 0 | 0.04 | 0.07 | 0.13 | 0.03 | 0.29 | 0.45 | 0.46 | quite low | quite low | no modifications of the spectrograms were observed
Cl.Cl.O=C(O)COCCN1CCN(C(c2ccc(F)cc2)c2ccc(F)cc2)CC1 [Form B, 2-[2-[4-[bis(4-fluorophenyl)methyl]-1-piperazinyl]ethoxy]acetic acid dihydrochloride] | – | – | – | 4.05 ± 0.64 | 3.58 ± 0.50 | 3.31 ± 0.04 | 0 | 0.13 | 0.16 | 0.23 | 0.04 | 0.87 | 2.69 | 2.95 | quite low | very significant | no modifications of the spectrograms were observed
